Assay results published in PMC10301922, “Anti-Oxidant, Anti-Mutagenic Activity and Safety Evaluation of Antrocin” (Toxics, 2023).

Tested on: Sprague Dawley rats
Assay: 28-day oral toxicity test: histopathological examination
Conditions: for Bone, femur: Hypertrophy, epiphysis; Score value: grades 1-5
[1] = female rats, 7.5 mg/kg oral 28 d
[2] = female rats, 37.5 mg/kg oral 28 d

C=C1CC[C@H]2C(C)(C)CCC[C@@]23C(=O)OC[C@@H]13 [Antrocin, (-)-Antrocin]
Adrenal gland: Congestion, cortex, focal, slight; incidence [1]: - | Aorta: histopathological lesions [1]: - | Bone, femur: Hypertrophy, epiphysis, diffuse, slight to moderate/severe; incidence [1]: 0/5 | Cervix: histopathological lesions [1]: - | Esophagus: histopathological lesions [1]: - | Eyes: histopathological lesions [1]: - | Heart: histopathological lesions [1]: - | Kidney: Cast, tubule, focal, slight; incidence [1]: - | Liver: Fatty change, multifocal, slight; incidence [1]: 1/5 | Lung: histopathological lesions [1]: - | Optic nerve: histopathological lesions [1]: - | Ovary: Increase, follicle, multifocal, moderate to moderate/severe; incidence [1]: 0/5 | Oviduct: histopathological lesions [1]: - | Pancreas: histopathological lesions [1]: - | Parathyroid gland: histopathological lesions [1]: - | Pituitary: histopathological lesions [1]: - | Salivary gland: histopathological lesions [1]: - | Sciatic nerve: histopathological lesions [1]: - | Skeletal muscle: histopathological lesions [1]: - | Skin: histopathological lesions [1]: - | Spinal cord: histopathological lesions [1]: - | Spleen: histopathological lesions [1]: - | Stomach: histopathological lesions [1]: - | Thymus: histopathological lesions [1]: - | Thyroid gland: histopathological lesions [1]: - | Tongue: histopathological lesions [1]: - | Trachea: histopathological lesions [1]: - | Urinary bladder: histopathological lesions [1]: - | Uterus: histopathological lesions [1]: - | Vagina: histopathological lesions [1]: - | Bone, femur: Hypertrophy, epiphysis; Score value [1]: 0 | Adrenal gland: Congestion, cortex, focal, slight; incidence [2]: - | Aorta: histopathological lesions [2]: - | Bone, femur: Hypertrophy, epiphysis, diffuse, slight to moderate/severe; incidence [2]: 0/5 | Cervix: histopathological lesions [2]: - | Esophagus: histopathological lesions [2]: - | Eyes: histopathological lesions [2]: - | Harderian gland: Infiltration, mononuclear cell, focal, minimal; incidence [2]: 1/5 | Heart: histopathological lesions [2]: - | Kidney: Cast, tubule, focal, slight; incidence [2]: - | Lung: histopathological lesions [2]: - | Optic nerve: histopathological lesions [2]: - | Ovary: Increase, follicle, multifocal, moderate to moderate/severe; incidence [2]: 0/5 | Oviduct: histopathological lesions [2]: - | Pancreas: histopathological lesions [2]: - | Parathyroid gland: histopathological lesions [2]: - | Pituitary: histopathological lesions [2]: - | Salivary gland: histopathological lesions [2]: - | Sciatic nerve: histopathological lesions [2]: - | Skeletal muscle: histopathological lesions [2]: - | Skin: histopathological lesions [2]: - | Spinal cord: histopathological lesions [2]: - | Spleen: histopathological lesions [2]: - | Stomach: histopathological lesions [2]: - | Thymus: histopathological lesions [2]: - | Thyroid gland: histopathological lesions [2]: - | Tongue: histopathological lesions [2]: - | Trachea: histopathological lesions [2]: - | Urinary bladder: histopathological lesions [2]: - | Uterus: histopathological lesions [2]: - | Vagina: histopathological lesions [2]: - | Bone, femur: Hypertrophy, epiphysis; Score value [2]: 0 | treatment-related lesions in the histopathological examination (high dose (37.5 mg/kg) oral 28 d): no significant treatment-related lesions | Adrenal gland: Congestion, cortex, multifocal, slight; incidence (male rats, 7.5 mg/kg oral 28 d): - | Aorta: histopathological lesions (male rats, 7.5 mg/kg oral 28 d): - | Bone marrow, femur: Hypocellularity, diffuse, slight to moderate/severe; incidence (male rats, 7.5 mg/kg oral 28 d): 0/5 | Bone marrow, sternum: Hypocellularity, diffuse, moderate; incidence (male rats, 7.5 mg/kg oral 28 d): 0/5 | Bone, femur: Hypertrophy, epiphysis, diffuse, slight to moderate/severe; incidence (male rats, 7.5 mg/kg oral 28 d): 0/5 | Coagulative gland: histopathological lesions (male rats, 7.5 mg/kg oral 28 d): - | Epididymis: Granuloma, spermatic, focal, moderate; incidence (male rats, 7.5 mg/kg oral 28 d): - | Esophagus: histopathological lesions (male rats, 7.5 mg/kg oral 28 d): - | Eyes: histopathological lesions (male rats, 7.5 mg/kg oral 28 d): - | Harderian gland: histopathological lesions (male rats, 7.5 mg/kg oral 28 d): - | Heart: Infiltration, mononuclear cell, focal, minimal to slight; incidence (male rats, 7.5 mg/kg oral 28 d): 1/5 | Intestine, large, Caecum: histopathological lesions (male rats, 7.5 mg/kg oral 28 d): - | Intestine, large, Colon: histopathological lesions (male rats, 7.5 mg/kg oral 28 d): - | Intestine, large, Rectum: histopathological lesions (male rats, 7.5 mg/kg oral 28 d): - | Intestine, small, Duodenum: histopathological lesions (male rats, 7.5 mg/kg oral 28 d): - | Intestine, small, Ileum: histopathological lesions (male rats, 7.5 mg/kg oral 28 d): - | Intestine, small, Jejunum: histopathological lesions (male rats, 7.5 mg/kg oral 28 d): - | Kidney: Cast, tubule, focal, minimal; incidence (male rats, 7.5 mg/kg oral 28 d): - | Kidney: Cyst, tubule, focal, slight; incidence (male rats, 7.5 mg/kg oral 28 d): 1/5 | Kidney: Infarct, tubule, focal, slight; incidence (male rats, 7.5 mg/kg oral 28 d): 2/5 | Liver: histopathological lesions (male rats, 7.5 mg/kg oral 28 d): - | Lung: histopathological lesions (male rats, 7.5 mg/kg oral 28 d): - | Lymph node, Cervical: histopathological lesions (male rats, 7.5 mg/kg oral 28 d): -
